# Measured values reported in patent US20110244503A1, “System and Method for Anti-Cancer Drug Candidate Evaluation” (priority 2010, published 2011).
# How the values were obtained:
# [1] = test system: ovarian cancer cell line, CAOV-3; experiment: MiCK-type spectrophotometric apoptosis assay, CAOV-3 cells; assay type: cell-based; conditions: as Example 1 but with higher drug concentrations, above 3 kinetic units = positive response
# Experimental: Cancer cells were obtained from exponentially growing cultures in RPMI 1640 medium without phenol red supplemented with 10% heat-inactivated fetal bovine serum, 100 U/ml penicillin and 100 μg/mL streptomycin (complete medium) in humidified air with 5% CO2 at 37° C. Cells were harvested, washed with pre-warmed medium and resuspended in complete medium. Appropriate cell counts and viability were tested.
# Cells from each cell line in complete medium were placed in wells of a 96-well plate at a concentration of 2 to 5×10^5 cells/ml. Various dilutions of the drug candidate, Idarubicin, were added to the wells in 5 μL aliquots. Final concentrations for the drug candidate were 0.01, 0.1, 0.5, 1, 5, 10 and 20 μM. The plates were incubated at 37° C. for 30 minutes in a humidified 5% CO2 atmosphere. After this adjustment period, 30 μl of sterile mineral oil was layered on top of each well. The microtiter plate was placed in an incubated spectrophotometer chamber (37° C.) and OD at 600 nm was measured every 5 minutes for a period of 48 hours. The reader was calibrated to zero absorbance using well containing only complete medium and no cells. All tests were performed in triplicate.
# Data acquisition and computation was performed using appropriate software. OD readings were plotted against time to provide a kinetic representation of cell responses to the drugs and drug candidate. Kinetic units were calculated for each test well. A kinetic unit below […] was considered a negative response and above 3 was considered a positive response. A kinetic unit between 1.5 and 3 was considered a marginal response.
# A variety of anti-cancer drugs were tested against a single ovarian cancer cell line, CAOV-3, to determine their suitability for use against ovarian cancer. Tests were performed in a manner similar to those in Example 1, but with higher drug concentrations.
# [2] = test system: MOLT-3, an acute T-cell lymphoblastic leukemia; experiment: MiCK-type spectrophotometric apoptosis assay, MOLT-3 cells; assay type: cell-based, human; conditions: 0.01-20 μM
# Experimental: (§1) Spectrophotometric data may be converted to kinetic units. Kinetic units are determined by the slope of the curve created when the change in the OD at 600 nm caused by cell blebbing is plotted as a function of time. Specific information regarding the calculation of kinetic units is provided in Kravtsov, Vladimir D. et al., Use of the Microculture Kinetic Assay of Apoptosis to Determine Chemosensitivities of Leukemias, Blood 92:968-980 (1998), incorporated by reference herein. Optical density for a given drug candidate at a given concentration may be plotted against time. This plot gives a distinctive increasing curve if the cells are undergoing apoptosis. […] (FIG. 3.) Cell death due to reasons other than apoptosis can also be determined by the current assay and is useful in eliminating false positives from drug candidate screening. […]
# (§2) Vmax is the maximum kinetic rate, which is the slope of the steep increase in the OD v. time plot when cells are undergoing apoptosis. […] ODcell is the initial OD of the control containing cells and ODblank is the initial OD of a blank well containing only medium or medium and drug (the drug may be omitted for some drugs, but for colored drugs in particular it may be included in the blank). y is a coefficient dependent on the cell type being assayed and may be determined experimentally through observation of the cell lines. […]
# [3] = test system: HL60, an acute promyelocytic leukemia cell line; experiment: MiCK-type spectrophotometric apoptosis assay, HL60 cells; assay type: cell-based, human; conditions: HL-60 cells
# Experimental: as §1, §2
# [4] = test system: JURL-MK2, a chronic myeloid leukemia in blast crisis; experiment: MiCK-type spectrophotometric apoptosis assay, JURL-MK2 cells; assay type: cell-based, human; conditions: 0.01-20 μM, OD at 600 nm every 5 minutes for 48 hours, above 3 = positive response
# Experimental: as §1, §2
# [5] = test system: RAMOS, a B cell line derived from Burkitt's lymphoma; experiment: MiCK-type spectrophotometric apoptosis assay, RAMOS cells; assay type: cell-based, human; conditions: 0.01-20 μM
# Experimental: as §1, §2
Structure (SMILES),response / suitability (in words) [1],other results
COc1cccc2c1C(=O)c1c(O)c3c(c(O)c1C2=O)C[C@@](O)(C(C)=O)C[C@@H]3O[C@H]1C[C@H](N)[C@H](O)[C@H](C)O1 [Daunorubicin],positive response at reasonable concentrations,–
"CC(=O)[C@]1(O)Cc2c(O)c3c(c(O)c2[C@@H](O[C@H]2C[C@H](N)[C@H](O)[C@H](C)O2)C1)C(=O)c1ccccc1C3=O [Idarubicin, 4-demethoxydaunorubicin]",positive response at reasonable concentrations,"concentration dependence of kinetic unit readings (in words) [2]: higher kinetic unit readings at lower concentrations; apoptotic response ([2]; OD at 600 nm every 5 minutes for 48 hours, above 3 = positive response): exceeding 3 kinetic units; maximal response ([3]; 0.01-20 μM, 48 hours, between 1.5 and 3 = marginal response): 2.3 kinetic units; drug sensitivity (in words) ([3]; threshold 3 kinetic units): only marginal sensitivity; apoptotic response [4]: exceeding 3 kinetic units; apoptotic response ([5]; RAMOS cells, OD at 600 nm every 5 minutes for 48 hours, above 3 = positive response): exceeding 3 kinetic units; concentration dependence of response (in words) ([5]; Ramos cells): positive response was seen in the Ramos cell line only at high concentrations"
CCc1c2c(nc3ccc(OC(=O)N4CCC(N5CCCCC5)CC4)cc13)-c1cc3c(c(=O)n1C2)COC(=O)[C@]3(O)CC [Irinotecan],need to use high concentrations of the drug to achieve a positive response,–
CO[C@@]12[C@H](COC(N)=O)C3=C(C(=O)C(C)=C(N)C3=O)N1C[C@@H]1N[C@@H]12 [Mitomycin],positive response at reasonable concentrations,–
O=C1c2c(O)ccc(O)c2C(=O)c2c(NCCNCCO)ccc(NCCNCCO)c21 [Mitoxantrone],positive response at reasonable concentrations,–
O=C1[O][Pt]2([NH][C@@H]3CCCC[C@H]3[NH]2)[O]C1=O [Oxaliplatin],not suitable drugs for treating ovarian cancer,–
CCC1=C[C@@H]2CN(C1)Cc1c([nH]c3ccccc13)[C@@](C(=O)OC)(c1cc3c(cc1OC)N(C)[C@H]1[C@@](O)(C(=O)OC)[C@H](OC(C)=O)[C@]4(CC)C=CCN5CC[C@]31[C@@H]54)C2 [Vinorelbine],not suitable drugs for treating ovarian cancer,–
